This note sets out measurements from ChEMBL document CHEMBL5108067, “Discovery of Potent OTUB1/USP8 Dual Inhibitors Targeting Proteostasis in Non-Small-Cell Lung Cancer” (J Med Chem, 2022).

Series [1] has as its target T1, Ubiquitin thioesterase OTUB1 (Homo sapiens, UniProt Q96FW1). Description: Inhibition of N-terminal His-6 tagged OTUB1 (40 to 271 residues) (unknown origin) expressed in Escherichia coli BL21 (DE3) cells at 100 nM using Ub-Rho measured after 0.5 to 3 hrs by fluorescence based Plate reader method relative to control. The settings on record: time 0.5-3 hrs, values are per cent of control.

The target of series [2] is T1, Ubiquitin thioesterase OTUB1. Description: Inhibition of N-terminal His-6 tagged OTUB1 (40 to 271 residues) (unknown origin) expressed in Escherichia coli BL21 (DE3) cells at 10 nM using Ub-Rho measured after 0.5 to 3 hrs by fluorescence based Plate reader method relative to control. The settings on record: time 0.5-3 hrs, values are per cent of control.
Series [3] deals with T2, Ubiquitin carboxyl-terminal hydrolase 8 (Homo sapiens) (UniProt P40818).
T2 sequence (whole entry): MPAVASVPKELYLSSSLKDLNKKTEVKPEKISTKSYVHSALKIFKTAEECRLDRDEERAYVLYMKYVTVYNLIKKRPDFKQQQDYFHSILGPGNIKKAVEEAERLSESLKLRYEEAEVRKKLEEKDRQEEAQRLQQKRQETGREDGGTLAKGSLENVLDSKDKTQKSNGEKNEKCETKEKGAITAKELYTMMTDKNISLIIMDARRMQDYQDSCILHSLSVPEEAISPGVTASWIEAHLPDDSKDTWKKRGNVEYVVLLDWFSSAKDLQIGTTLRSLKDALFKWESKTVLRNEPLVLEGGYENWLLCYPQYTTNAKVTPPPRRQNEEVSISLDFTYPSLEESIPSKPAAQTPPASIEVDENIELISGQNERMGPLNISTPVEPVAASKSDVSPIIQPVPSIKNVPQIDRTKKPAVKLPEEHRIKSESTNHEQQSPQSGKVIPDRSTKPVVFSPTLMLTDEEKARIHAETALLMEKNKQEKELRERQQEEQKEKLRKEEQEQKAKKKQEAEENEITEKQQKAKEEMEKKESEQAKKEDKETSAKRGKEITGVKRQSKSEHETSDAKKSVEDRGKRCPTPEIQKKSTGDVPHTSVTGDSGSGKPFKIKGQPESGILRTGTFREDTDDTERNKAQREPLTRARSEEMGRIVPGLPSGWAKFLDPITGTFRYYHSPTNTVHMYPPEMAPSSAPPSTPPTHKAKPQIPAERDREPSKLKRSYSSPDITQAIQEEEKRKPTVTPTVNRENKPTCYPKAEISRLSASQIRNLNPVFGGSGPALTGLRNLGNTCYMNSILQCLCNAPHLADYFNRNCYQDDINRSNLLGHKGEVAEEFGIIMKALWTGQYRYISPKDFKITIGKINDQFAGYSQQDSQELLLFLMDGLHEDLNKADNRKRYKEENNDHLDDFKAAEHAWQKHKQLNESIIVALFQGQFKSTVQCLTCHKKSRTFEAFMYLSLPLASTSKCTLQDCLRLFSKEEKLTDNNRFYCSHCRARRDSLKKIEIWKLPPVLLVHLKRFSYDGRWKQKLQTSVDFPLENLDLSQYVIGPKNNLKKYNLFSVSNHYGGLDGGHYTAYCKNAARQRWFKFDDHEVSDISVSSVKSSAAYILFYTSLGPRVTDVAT
Description: Inhibition of N-terminal His-6 tagged USP8 (734 to 1110 residues) (unknown origin) expressed in Escherichia coli BL21 (DE3) cells at 100 nM measured after 3 hrs by fluorescence based Plate reader method relative to control. The settings on record: values are per cent of control.

A short description of series [4]: Aqueous solubility of the compound measured after 24 hr by […] LC-MS/MS analysis. In kind it is physicochemical. To be noted: buffer.
For series [5], the target named is T2, Ubiquitin carboxyl-terminal hydrolase 8 (Homo sapiens). As to the kind of experiment: Inhibition of N-terminal His-6 tagged USP8 (734 to 1110 residues) (unknown origin) expressed in Escherichia coli BL21 (DE3) cells at 10 nM measured after 3 hrs by fluorescence based Plate reader method relative to control. To be noted: values are per cent of control.
Series [6] concerns the target T1, Ubiquitin thioesterase OTUB1. As to the kind of experiment: Inhibition of N-terminal His-6 tagged OTUB1 (40 to 271 residues) (unknown origin) expressed in Escherichia coli BL21 (DE3) cells using Ub-Rho measured after 0.5 to 3 hrs by fluorescence based Plate reader method.
Series [7] shares this target. As to the kind of experiment: Binding affinity to OTUB1 in HEK293T cells at 5 uM preincubated for 30 mins followed by UV irradiation and measured after 20 mins by Western blot assay. In kind it is cell-based. To be noted: time 50.0 min. In general terms: Immunoblotting shows a protein as a band on a membrane.
The target is the same in series [8]. As to the kind of experiment: Binding affinity to OTUB1 in HEK293T cells at […] preincubated for 30 mins followed by UV irradiation and measured after 20 mins by Western blot analysis. In kind it is cell-based. The settings on record: dose 2.5 µM, time 50.0 min.
Series [9] shares this target. Description: Binding affinity to OTUB1 in HEK293T cells at 1 uM preincubated for 2 hrs followed by UV irradiation and measured after 20 mins by silver staining based gel electrophoresis assay. In kind it is cell-based. The settings on record: time 140.0 min.
The target is the same in series [10]. As to the kind of experiment: Binding affinity to OTUB1 in HEK293T cells at 0.5 uM preincubated for 2 hrs followed by UV irradiation and measured after 20 mins by Western blot analysis. It is filed as cell-based. To be noted: time 140.0 min.
For series [11] the target is unchanged. As to the kind of experiment: Inhibition of N-terminal His-6 tagged OTUB1 (40 to 271 residues) (unknown origin) expressed in Escherichia coli BL21 (DE3) cells at […] using Ub-Rho measured after 0.5 to 3 hrs by fluorescence based Plate reader method relative to control. To be noted: dose 2.5 µM, time 0.5-3 hrs.

Active and inactive are the calls of the source. The calls are words filed in the database; no cut-off is given here.

T1 sequence (Q96FW1 whole entry, the tested form may be a part): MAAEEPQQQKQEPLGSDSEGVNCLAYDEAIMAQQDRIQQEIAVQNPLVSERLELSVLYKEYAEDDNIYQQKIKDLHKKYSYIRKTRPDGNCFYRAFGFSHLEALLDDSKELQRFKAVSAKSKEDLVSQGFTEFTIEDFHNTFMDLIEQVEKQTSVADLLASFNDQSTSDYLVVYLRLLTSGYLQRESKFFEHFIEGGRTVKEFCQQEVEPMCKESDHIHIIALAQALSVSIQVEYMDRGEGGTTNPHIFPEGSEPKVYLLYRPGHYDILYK

The term residual activity denotes the share of the control activity or signal that is left under treatment. High values mean much activity left, low ones little activity left. Regarding `CN1CCN(CCOc2ccc(F)c(-c3nc4c(o3)C(=O)c3ccccc3C4=O)c2Cl)CC1`, the residual activity was 8.7% in series [1], 17% in series [2], 21.4% in series [3] and 26.7% in [5]. Moreover, in [4], the solubility entry is “Soluble”.
The matching figures for `O=C1c2ccccc2C(=O)c2oc(-c3c(F)ccc(F)c3Cl)nc21`: 10.4%, 23.3%, 28.4%, 52.4% and “Insoluble”.
One may read the IC50 as the concentration at which inhibition is half-maximal. Lower therefore signals greater potency in that assay. `C#CCCC1(CCN2CC[C@@H](Oc3cccc(-c4nc5c([nH]4)C(=O)c4ccccc4C5=O)c3)C2)N=N1` returned a half-inhibitory concentration (IC50) in series [6] of 6.12 µM. In addition, in series [7], the result was Active.
Regarding `N#Cc1ccc(-c2nc3c(o2)C(=O)c2ccccc2C3=O)cc1`, the residual activity in [1] worked out at 15.2%; in [2], 46.4%; in series [3], 20.8%; in series [5] it was 38.9%. Further, the solubility entry in series [4] is reported as “Insoluble”.
`O=C1c2ccccc2C(=O)c2oc(-c3cccc(C(F)(F)F)c3)nc21`: the residual activity in series [1] was 13.2%; in [2], 23.1%; in series [3] it was 21.6%; in [5], 54.4%. Besides, in series [4], the solubility entry is given as “Insoluble”.
The matching figures for `O=C1c2ccccc2C(=O)c2oc(-c3c(F)cccc3Cl)nc21`: 9.6%, 37.3%, 26.5%, 62.9% and “Insoluble”.
In [6], `C#CCCC1(CCN2CC[C@@H](Oc3cccc(-c4nc5c(o4)C(=O)c4ccccc4C5=O)c3)C2)N=N1` showed an IC50 of 0.037 µM. The result in series [8], in series [9] and in [10] was Active.
As to `CN1CC[C@@H](Oc2cc(-c3nc4c(o3)C(=O)c3ccccc3C4=O)ccc2Cl)C1`, the residual activity in series [1] was 12.8%; in [2] it was 23.6%; in series [3], 24.9%; in series [5] it was 51.8%. Also, in series [4], the solubility result was “Soluble”.
For `COc1ccc(Cl)c(-c2nc3c(o2)C(=O)c2ccccc2C3=O)c1`, the residual activity in [1] turned out to be 25.8%; in series [2], 63.2%; in series [3] it was 24%; in [5], 47.1%.
The matching figures for `O=C1c2ccccc2C(=O)c2oc(-c3cccc(F)c3F)nc21`: 19.8%, 50.2%, 22.7% and 40.1%.
The matching figures for `CN1CCN(CCOc2cc(Cl)cc(-c3nc4c(o3)C(=O)c3ccccc3C4=O)c2)CC1`: 36.3%, 77.3%, 27.9% and 58.8%.
The matching figures for `O=C1c2ccccc2C(=O)c2oc(-c3ccc(F)cc3)nc21`: 24.6%, 55.8%, 23.3% and 53.5%.
With `CN1CCN(CCOc2ccc(Cl)c(-c3nc4c(o3)C(=O)c3ccccc3C4=O)c2F)CC1`, the residual activity worked out at 7.2% in series [1], 14.4% in series [2], 32.6% in series [3] and 33.1% in series [5]. Besides, in [4], the solubility result was “Soluble”.
On to `O=C1c2ccccc2C(=O)c2oc(-c3ccc(F)cc3Cl)nc21`, for which the residual activity in series [1] is 23.5%; in [2], 47.6%; in series [3], 37.4%; in series [5], 28.5%.
The matching figures for `CN1CC[C@@H](Oc2cccc(-c3nc4c(o3)C(=O)c3ccccc3C4=O)c2)C1`: 34%, 70.7%, 30% and 68.3%.
The matching figures for `COc1ccc(Cl)c(-c2nc3c(o2)C(=O)c2ccccc2C3=O)c1F`: 26.3%, 48.7%, 20.4% and 74.1%.
Consider `COc1cc(-c2nc3c(o2)C(=O)c2ccccc2C3=O)ccc1C`, for which the residual activity in series [1] was 59.9%; in series [2] it was 70.8%; in series [3], 56.7%; in [5] it was 57.9%.
For orientation: inhibition means how much of the control response was suppressed. Read a low inhibition as little suppression. For the compound `O=C1c2ccccc2C(=O)c2oc(-c3ccccc3)nc21`, the inhibition in series [11] was determined as 100%.
